Measured values: paper PMC11219871, “Epigenetic-based differentiation therapy for Acute Myeloid Leukemia” (Nature Communications, 2024)
Several values for one entry are separate records, joined by “and”; a condition that tells them apart may be missing. Equal values may be shown once.

Key:
Assay type in all cases: cell-based, human
[1] = test system: primary AML patient samples; experiment: Differentiation assay, CD11b flow cytometry in primary samples; details: for CD11b-positive cells (%): daily 48 h
Method: Next, the cells were washed twice with phosphate-buffered saline (PBS) and resuspended in 1X Binding Buffer at a concentration of 1 × 10^6 cells/mL. An 8-µL aliquot of APC-CD11b (BD Pharmingen, Franklin Lakes, NJ, USA) and 1 µL of FITC annexin-V (AV) (BD Pharmingen, Franklin Lakes, NJ, USA) antibodies were added and incubated for 15 min at room temperature in the dark. Finally, after the addition of 400 µL of 1X Binding Buffer to each tube, samples were collected on a BD FACSCanto flow cytometer (Becton Dickinson, San Jose, CA, USA) and analyzed using FlowJo software.
Peripheral blood (PB) specimens were obtained from preliminarily diagnosed AML patients who had not received any treatment before specimens were collected. All patients gave informed consent for their participation in this study, which was approved by the Clinical Research Ethics Committee of Clínica Universidad de Navarra. Written informed consent was obtained from each participant. PB was mixed with an ammonium chloride-potassium (ACK) buffer lysis (0.15 mol/L NH4Cl, 10 mmol/L KHCO3, 0.1 mmol/L ethylenediaminetetraacetic acid, pH 7.2) at a 1:2 volume ratio by gentle inversion, incubated for 10 min and centrifuged at 200 g for 10 min. The cell pellet was washed twice with PBS and finally resuspended in EGM2 medium (Cambrex Bioscience, Walkersville, MD). EGM2 contains 2% fetal calf serum, hydrocortisone, heparin, antibiotics, epidermal growth factor, human fibroblast growth factor, insulin-like growth factor, vascular endothelial growth factor, and ascorbic acid. The cells were plated at 1 × 10^6 cells/mL and treated daily with 200 and 500 nM of CM-444 and CM-1758 for 48 h. Next, the differentiation assay was performed as described above.

[2] = test system: HL-60; experiment: Differentiation-apoptosis assay, CD11b / annexin-V / Sytox Green / myeloid markers flow cytometry; set-up: Cell viability (%): concentration or dose not given beside the values; CD11b levels: unit not given here
Procedure, shortened: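 HL-60 cells were stained for the myeloid differentiation marker CD11b, with annexin-V and Sytox Green marking apoptosis and cell death. Cells were washed in PBS and resuspended at 1 × 10^6 cells/mL in binding buffer; marker staining of 1 million cells was for 30 min at room temperature in the dark, followed by red-cell lysis. Readout was flow cytometry.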

[3] = test system: ML-2; experiment: Proteome analysis (LC-MS/MS); details: ML-2, 25% GI50, 12 h
Method: After cooling down, lysates were incubated at 25 °C with 10 units of DNAse (Benzonase, Merk) and sonicated for 15 min in a Bioruptor for DNA shearing. Protein concentration was determined using microBCA, using BSA as standard. […] LysC, Wako). […] Peptides (500 μg) were labeled with Thermo Scientific […] Isobaric reagents for 1 h at 25 C. […] The final mixture was desalted using a 500 mg Sep-Pak C18t cartridge (Waters) and dried prior to high pH reverse phase HPLC pre-fractionation. Labeled peptides were fractionated offline through a high pH reverse phase chromatography using an Ultimate 3000 HPLC system equipped with a sample collector. Briefly, peptides were dissolved in 1200 μL of Buffer A (10 mM NH4OH) and loaded onto a XBridge BEH130 C18 column (3.5 μm, 250 mm length and 3.5 mm ID, Waters). […] One-minute fractions (500 μL) from minute 15 to 65 were collected and neutralized with 10% formic acid. […] Pooled fractions were snap-frozen and lyophilized. LC-MS/MS was done by coupling an UltiMate 3000 RSLCnano LC system to an Orbitrap Exploris 480 mass spectrometer (Thermo Fisher Scientific). […] The mass spectrometer was operated in a data-dependent mode, with an automatic switch between MS and MS/MS scans using a top 15 method. (Intensity threshold ≥ 1e4, dynamic exclusion of 20 sec and excluding charges unassigned, +1 and ≥ +7). MS spectra were acquired from 350 to 1500 m/z with a resolution of 60,000 FMHW (200 m/z). Ion peptides were isolated using a 0.7 Th window and fragmented using higher-energy collisional dissociation (HCD) with a normalized collision energy NCE of 36. MS/MS spectra were acquired with a fixed first mass of 120 m/z and a resolution of 45,000 FMHW (200 m/z). […] For total protein analysis, raw files were processed with MaxQuant (v 2.4.9.0) using the standard settings against the same protein database. […] Briefly, proteins/sites with less than eighteen valid values were filtered out. Then, a global normalization of log2-transformed intensities across samples was performed using the LOESS function. Differential analysis was done using the empirical Bayes statistics Limma. […] The FDR was estimated to be below 2% by Benjamini-Hochberg.

[4] = HL-60, 48 h treatment, replicates 1-3 (Suppl. Fig. 5A)
[5] = HL-60, daily treatment, time 0 days, replicates 1-3 (Figure 2B)
[6] = HL-60, daily treatment, time 2 days, replicates 1-3 (Figure 2B)
[7] = HL-60, daily treatment, time 4 days, replicates 1-3 (Figure 2B)
[8] = HL-60, daily treatment, time 6 days, replicates 1-3 (Figure 2B)
[9] = HL-60, daily treatment, time 8 days, replicates 1-3 (Figure 2B)

In the case of COc1cc2nc(-c3ccc(C)o3)cc(NCC3CCN(c4ncc(C(=O)NO)cn4)CC3)c2cc1OC [CM-444, 2-[4-[[[6,7-dimethoxy-2-(5-methyl-2-furyl)-4-quinolyl]amino]methyl]-1-piperidyl]pyrimidine-5-carbohydroxamic acid], the “CD11b (%)” value ([1]; primary AML patient sample 1 (Figure 2C)) is reported as 46.62%, the “CD11b (%)” value ([1]; primary AML patient sample 2 (Figure 2C)) is reported as 31.74% and the “CD11b (%)” value ([1]; primary AML patient sample 3 (Figure 2C)) is reported as 20.47%. The “CD11b (%)” value ([1]; primary AML patient sample 4 (Figure 2C)) was 39.54%, the “CD11b (%)” value ([1]; primary AML patient sample 5 (Figure 2C)) was 32.14% and the “CD11b (%)” value ([1]; primary AML patient sample 6 (Figure 2C)) was 38.57%. For the same compound, the “CD11b (%)” value ([1]; primary AML patient sample 7 (Figure 2C)) was 49.19%, the “CD11b (%)” value ([1]; primary AML patient sample 8 (Figure 2C)) was 23.69% and the “CD11b-positive cells (%)” value ([1]; sample AML-1, 200 nM) was 35.2%. The “CD11b-positive cells (%)” value ([1]; sample AML-1, 500 nM) was 46.6%, the “CD11b-positive cells (%)” value ([1]; sample AML-2, 200 nM) was 16.8% and the “CD11b-positive cells (%)” value ([1]; sample AML-2, 500 nM) was 31.7%. For the same compound, the “CD11b-positive cells (%)” value ([1]; sample AML-3, 200 nM) was 12.3%, the “CD11b-positive cells (%)” value ([1]; sample AML-3, 500 nM) was 20.5% and the “CD11b-positive cells (%)” value ([1]; sample AML-4, 200 nM) was 20.8%. For the same compound, the “CD11b-positive cells (%)” value ([1]; sample AML-4, 500 nM) was 39.5%, the “CD11b-positive cells (%)” value ([1]; sample AML-5, 200 nM) was 20.2% and the “CD11b-positive cells (%)” value ([1]; sample AML-5, 500 nM) was 32.1%. The “CD11b-positive cells (%)” value ([1]; sample AML-6, 200 nM) was 29.7%, the “CD11b-positive cells (%)” value ([1]; sample AML-6, 500 nM) was 38.6% and the “CD11b-positive cells (%)” value ([1]; sample AML-7, 200 nM) was 32.9%. For the same compound, the “CD11b-positive cells (%)” value ([1]; sample AML-7, 500 nM) was 49.2%, the “CD11b-positive cells (%)” value ([1]; sample AML-8, 200 nM) was 15.3% and the “CD11b-positive cells (%)” value ([1]; sample AML-8, 500 nM) was 23.7%. For the same compound, the “percentage of CD11b” value ([2]; HL-60, 270 nM CM-444 or 300 nM CM-1758 daily for 4 days, before injection) was greater than 90%, the “CD11b (%)” value ([2]; HL-60, 48 h) was 74.3% and the “CD13 (%)” value ([2]; HL-60, 48 h) was 100%. For the same compound, the “CD14 (%)” value ([2]; HL-60, 48 h) was 21.5%, the “HLA-DR (%)” value ([2]; HL-60, 48 h) was 9.16% and the “CD11b (%)” value [2, 4] was 71.2% and 75.4% and 68.7%. For the same compound, the “Cell viability (%)” value [2, 4] was 78.5% and 72.1% and 82.5%, the “differentiation level (CD11b)” value ([2]; HL-60, after 6–8 days of treatment) was roughly 90% and the “Annexin V (%) Replicate 1” value ([2]; HL-60, daily 25% GI50, 48 h) was 0.75%. For the same compound, the “Annexin V (%) Replicate 2” value ([2]; HL-60, daily 25% GI50, 48 h) was 0.49%, the “Annexin V (%) Replicate 3” value ([2]; HL-60, daily 25% GI50, 48 h) was 0.44% and the “CD11b (%) Replicate 1” value ([2]; HL-60, daily 25% GI50, 48 h) was 86.24%. For the same compound, the “CD11b (%) Replicate 2” value ([2]; HL-60, daily 25% GI50, 48 h) was 75.15%, the “CD11b (%) Replicate 3” value ([2]; HL-60, daily 25% GI50, 48 h) was 76.65% and the “Annexin-V (%)” value [2, 5] was 0% and 4.96% and 3.21%. For the same compound, the “CD11b (%)” value [2, 5] was 13.33% and 12.5% and 10.8%, the “Annexin-V (%)” value [2, 6] was 6.83% and 2.49% and 5.41% and the “CD11b (%)” value [2, 6] was 79.45% and 76.2% and 73.9%. The “Annexin-V (%)” value [2, 7] was 0% and 2.98% and 3.14%, the “CD11b (%)” value [2, 7] was 95.2% and 93.5% and 90.4% and the “Annexin-V (%)” value [2, 8] was 9.4% and 2.53% and 5.87%. For the same compound, the “CD11b (%)” value [2, 8] was 93% and 97.3% and 95.8%, the “Annexin-V (%)” value [2, 9] was 0% and 4.09% and 6.81% and the “CD11b (%)” value [2, 9] was 98.61% and 98.5% and 97.1%. The “CD11b (%)” value ([2]; HL-60 cell line, replicates 1-3 (Figure 2A)) was 88.3% and 85.7% and 88.0%, the CD11b levels ([2]; HL-60 treated daily for 48 h, replicates (Fig 6D)) was 76.5 and 85.9 and 92.1 and the “proteins significantly regulated, of 8342 quantified” value [3] was 9.5%.
